From ChEMBL document CHEMBL5042528, “Optimization of 2-Amino-4,6-diarylpyrimidine-5-carbonitriles as Potent and Selective A1 Antagonists” (J Med Chem, 2022)

Assays:
Adenosine receptor A2a [1] = biological target: T1, Adenosine receptor A2a (Homo sapiens, UniProt P29274)
Adenosine receptor A1 [2] = biological target: T2, Adenosine receptor A1 (Homo sapiens, UniProt P30542); test: Displacement of [3H]DPCPX from A1 adenosine receptor (unknown origin) expressed in CHO cell membrane incubated for 60 mins at room temperature by NXT microplate scintillation counter analysis; format: cell membranes
T2 sequence (P30542 whole entry): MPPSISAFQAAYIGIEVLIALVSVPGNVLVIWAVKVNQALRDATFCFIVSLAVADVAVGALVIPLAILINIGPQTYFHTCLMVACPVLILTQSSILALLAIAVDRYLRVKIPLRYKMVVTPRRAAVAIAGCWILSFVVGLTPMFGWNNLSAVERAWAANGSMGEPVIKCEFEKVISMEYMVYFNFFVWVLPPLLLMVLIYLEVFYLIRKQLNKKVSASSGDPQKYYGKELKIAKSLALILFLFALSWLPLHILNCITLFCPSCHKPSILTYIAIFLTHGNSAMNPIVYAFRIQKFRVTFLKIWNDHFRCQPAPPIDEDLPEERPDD

Adenosine receptor A1 [3] = biological target: T2, Adenosine receptor A1
Adenosine receptor A2a [4] = biological target: T1, Adenosine receptor A2a; remark: listed apart in the source
in vitro = conditions: human, liver microsomes
Description: Stability of the compound in human liver microsome assessed as compound remaining measured after 60 mins by UPLC-MS/MS analysis

T1 sequence (P29274 whole entry): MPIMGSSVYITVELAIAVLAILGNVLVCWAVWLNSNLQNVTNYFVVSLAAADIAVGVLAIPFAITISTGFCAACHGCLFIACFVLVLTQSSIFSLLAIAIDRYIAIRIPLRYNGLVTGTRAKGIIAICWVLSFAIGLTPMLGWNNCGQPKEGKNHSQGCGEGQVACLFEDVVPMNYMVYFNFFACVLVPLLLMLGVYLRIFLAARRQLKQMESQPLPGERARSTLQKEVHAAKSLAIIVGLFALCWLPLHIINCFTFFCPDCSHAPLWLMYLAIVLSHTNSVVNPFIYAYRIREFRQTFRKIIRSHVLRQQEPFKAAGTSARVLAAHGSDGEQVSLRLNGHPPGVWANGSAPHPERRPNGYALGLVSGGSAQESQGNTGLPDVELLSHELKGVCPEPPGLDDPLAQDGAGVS

For `N#Cc1c(-c2ccccc2)nc(NC(=O)C2CCCC2)nc1-c1ccc2c(c1)OCO2`, the Ki (Adenosine receptor A2a [1]) was 159 nM.
Compound `Nc1nc(-c2ccccc2)c2c(n1)-c1ccccc1C2=O` has a Ki (Adenosine receptor A1 [2]) of 0.1 nM.
For `N#Cc1c(-c2ccccc2)nc(Nc2ccccc2)nc1-c1cccc(O)c1`, the Ki (Adenosine receptor A1 [3]) was 18.3 nM and the Ki (Adenosine receptor A2a [4]) was 71.2 nM.
`C[C@]12CC[C@H]3[C@@H](CCC4=CC(=O)CC[C@@]43C)[C@@H]1CC[C@@H]2O` [TESTOSTERONE] gave a remaining at 1 h (in vitro) of 3.7%.
